Source: patent US7112565B2, “Stabilized pharmaceutical composition in lyophilized form” (Astellas Pharma Inc., priority 1999, dated 2006)

Legend:
[1] = Test Example 3: dependence of stability on the amount of lactose added; assay type: physicochemical
Description: (§1) 10 mg of Compound (II) and, as a stabilizer, 100 mg of lactose or 9 mg of sodium chloride were dissolved completely in 1 ml of water. The resulting solutions were lyophilized and maintained at 70° C. in glass vials. Nine days after, the resulting compositions were tested on their appearance, the residual amount of Compound (II), and others. As a control, used was a solution of Compound (II) without any stabilizers.
Dependence of the Stability of Lyophilized Compositions of Compound (II) upon the Amount of Lactose Added
Tests were carried out in the same manner as in Test example 1 except that 20 mg, 50 mg, 100 mg or 200 mg of lactose were added as a stabilizer. […] Incidentally, it took 15 seconds to reconstitute the compositions in 1 ml of water.

[2] = Test Example 4: stability of lyophilized compositions of 200 mg of lactose and Compound (II) in vial; assay type: physicochemical
Description: as §1
Stability of Lyophilized Compositions of 200 mg of Lactose and Compound (II) in Vial
Tests were carried out in the same manner as in Test Example 1 except that 12.5 mg, 25 mg, 50 mg, 75 mg or 100 mg of Compound (II) were used with 200 mg of lactose. […] Regarding all the compositions, their appearance is a white mass, the time for reconstitutional dissolution was 15 seconds, and the color and the clarity of reconstituted solutions of the compositions were colorless and transparent.

[3] = 10 mg Compound (II) + 20 mg lactose, 0 hours
[4] = 10 mg Compound (II) + 20 mg lactose, after 3 months at 40° C. and 75% humidity
[5] = 10 mg Compound (II) + 20 mg lactose, after 9 days at 70° C.
[6] = 10 mg Compound (II) + 50 mg lactose, 0 hours
[7] = 10 mg Compound (II) + 50 mg lactose, after 3 months at 40° C. and 75% humidity
[8] = 10 mg Compound (II) + 50 mg lactose, after 9 days at 70° C.
[9] = 10 mg Compound (II) + 100 mg lactose, 0 hours
[10] = 10 mg Compound (II) + 100 mg lactose, after 3 months at 40° C. and 75% humidity
[11] = 10 mg Compound (II) + 100 mg lactose, after 9 days at 70° C.
[12] = 10 mg Compound (II) + 200 mg lactose, 0 hours
[13] = 10 mg Compound (II) + 200 mg lactose, after 3 months at 40° C. and 75% humidity
[14] = 10 mg Compound (II) + 200 mg lactose, after 9 days at 70° C.
[15] = 12.5 mg Compound (II) + 200 mg lactose, 0 hours
[16] = 12.5 mg Compound (II) + 200 mg lactose, after 3 months at 40° C. and 75% humidity
[17] = 12.5 mg Compound (II) + 200 mg lactose, after 9 days at 70° C.
[18] = 12.5 mg Compound (II) + 200 mg lactose, after 21 days at 60° C.
[19] = 25 mg Compound (II) + 200 mg lactose, 0 hours
[20] = 25 mg Compound (II) + 200 mg lactose, after 9 days at 70° C.
[21] = 25 mg Compound (II) + 200 mg lactose, after 21 days at 60° C.
[22] = 50 mg Compound (II) + 200 mg lactose, 0 hours
[23] = 50 mg Compound (II) + 200 mg lactose, after 3 months at 40° C. and 75% humidity
[24] = 50 mg Compound (II) + 200 mg lactose, after 9 days at 70° C.
[25] = 50 mg Compound (II) + 200 mg lactose, after 21 days at 60° C.
[26] = 75 mg Compound (II) + 200 mg lactose, 0 hours
[27] = 75 mg Compound (II) + 200 mg lactose, after 3 months at 40° C. and 75% humidity
[28] = 75 mg Compound (II) + 200 mg lactose, after 9 days at 70° C.
[29] = 75 mg Compound (II) + 200 mg lactose, after 21 days at 60° C.
[30] = 100 mg Compound (II) + 200 mg lactose, 0 hours
[31] = 100 mg Compound (II) + 200 mg lactose, after 3 months at 40° C. and 75% humidity
[32] = 100 mg Compound (II) + 200 mg lactose, after 9 days at 70° C.
[33] = 100 mg Compound (II) + 200 mg lactose, after 21 days at 60° C.
[34] = all compositions: 12.5 to 100 mg Compound (II) + 200 mg lactose

CCCCCOc1ccc(-c2cc(-c3ccc(C(=O)NC4CC(O)C(O)NC(=O)C5C(O)C(C)CN5C(=O)C(C(O)CC(N)=O)NC(=O)C(C(O)C(O)c5ccc(O)c(OS(=O)(=O)[O-])c5)NC(=O)C5CC(O)CN5C(=O)C(C(C)O)NC4=O)cc3)no2)cc1.[Na+] (centres unmarked) [Compound (II)]
Clarity of reconstituted solution in 1 ml of water [1, 3]: Clear | Color of reconstituted solution in 1 ml of water [1, 3]: Colorless | Residual amount [1, 3]: 100.0% | Total impurities [1, 3]: 3.44% | Water content [1, 3]: 1.2% | pH of reconstituted solution in 1 ml of water [1, 3]: 6.09 | Clarity of reconstituted solution in 1 ml of water [1, 4]: Clear | Color of reconstituted solution in 1 ml of water [1, 4]: Colorless | Residual amount [1, 4]: 100.0% | Total impurities [1, 4]: 3.99% | pH of reconstituted solution in 1 ml of water [1, 4]: 6.57 | Clarity of reconstituted solution in 1 ml of water [1, 5]: Not clear | Color of reconstituted solution in 1 ml of water [1, 5]: White | Residual amount [1, 5]: 88.09% | Total impurities [1, 5]: 12.3% | pH of reconstituted solution in 1 ml of water [1, 5]: 3.03 | Clarity of reconstituted solution in 1 ml of water [1, 6]: Clear | Color of reconstituted solution in 1 ml of water [1, 6]: Colorless | Residual amount [1, 6]: 100.0% | Total impurities [1, 6]: 3.32% | Water content [1, 6]: 0.5% | pH of reconstituted solution in 1 ml of water [1, 6]: 6.57 | Appearance [1, 7]: White mass | Clarity of reconstituted solution in 1 ml of water [1, 7]: Clear | Color of reconstituted solution in 1 ml of water [1, 7]: Colorless | Residual amount [1, 7]: 99.8% | Total impurities [1, 7]: 4.21% | Clarity of reconstituted solution in 1 ml of water [1, 8]: Clear | Color of reconstituted solution in 1 ml of water [1, 8]: Colorless | Residual amount [1, 8]: 96.7% | Total impurities [1, 8]: 7.37% | pH of reconstituted solution in 1 ml of water [1, 8]: 5.56 | Clarity of reconstituted solution in 1 ml of water [1, 9]: Clear | Color of reconstituted solution in 1 ml of water [1, 9]: Colorless | Residual amount [1, 9]: 100.0% | Total impurities [1, 9]: 3.43% | Water content [1, 9]: 0.3% | pH of reconstituted solution in 1 ml of water [1, 9]: 6.58 | Appearance [1, 10]: White mass | Color of reconstituted solution in 1 ml of water [1, 10]: Colorless | Residual amount [1, 10]: 99.6% | Total impurities [1, 10]: 3.96% | pH of reconstituted solution in 1 ml of water [1, 10]: 5.80 | Clarity of reconstituted solution in 1 ml of water [1, 11]: Clear | Color of reconstituted solution in 1 ml of water [1, 11]: Colorless | Residual amount [1, 11]: 96.7% | Total impurities [1, 11]: 7.08% | pH of reconstituted solution in 1 ml of water [1, 11]: 6.08 | Clarity of reconstituted solution in 1 ml of water [1, 12]: Clear | Color of reconstituted solution in 1 ml of water [1, 12]: Colorless | Residual amount [1, 12]: 100.0% | Total impurities [1, 12]: 3.40% | Water content [1, 12]: 0.3% | pH of reconstituted solution in 1 ml of water [1, 12]: 6.78 | Appearance [1, 13]: White mass | Clarity of reconstituted solution in 1 ml of water [1, 13]: Clear | Color of reconstituted solution in 1 ml of water [1, 13]: Colorless | Residual amount [1, 13]: 99.6% | Total impurities [1, 13]: 4.35% | pH of reconstituted solution in 1 ml of water [1, 13]: 5.36 | Clarity of reconstituted solution in 1 ml of water [1, 14]: Clear | Color of reconstituted solution in 1 ml of water [1, 14]: Colorless | Residual amount [1, 14]: 96.1% | Total impurities [1, 14]: 7.30% | pH of reconstituted solution in 1 ml of water [1, 14]: 5.70 | Time to reconstitute the compositions in 1 ml of water ([1]; 10 mg Compound (II) + 20, 50, 100 or 200 mg lactose): 15 s | Stability of lyophilized compositions (conclusion from Table 3) ([1]; 10 mg of Compound (II) and various amount of lactose): no problem in their stability | Residual amount [2, 15]: 100.0% | Total impurities [2, 15]: 2.24% | Water content [2, 15]: 1.3% | pH of reconstituted solution in 5 ml of purified water [2, 15]: 6.63 | Residual amount [2, 16]: 99.6% | Total impurities [2, 16]: 2.71% | pH of reconstituted solution in 5 ml of purified water [2, 16]: 6.08 | Residual amount [2, 17]: 98.1% | Total impurities [2, 17]: 3.95% | pH of reconstituted solution in 5 ml of purified water [2, 17]: 6.15 | Residual amount [2, 18]: 97.5% | Total impurities [2, 18]: 3.75% | pH of reconstituted solution in 5 ml of purified water [2, 18]: 6.31 | Residual amount [2, 19]: 100.0% | Total impurities [2, 19]: 2.25% | Water content [2, 19]: 1.1% | pH of reconstituted solution in 5 ml of purified water [2, 19]: 6.37 | Total impurities ([2]; 25 mg Compound (II) + 200 mg lactose, after 3 months at 40° C. and 75% humidity): 2.68% | Residual amount [2, 20]: 99.3% | Total impurities [2, 20]: 4.03% | pH of reconstituted solution in 5 ml of purified water [2, 20]: 6.07 | Residual amount [2, 21]: 98.2% | Total impurities [2, 21]: 3.49% | pH of reconstituted solution in 5 ml of purified water [2, 21]: 6.11 | Residual amount [2, 22]: 100.0% | Total impurities [2, 22]: 2.25% | Water content [2, 22]: 1.2% | pH of reconstituted solution in 5 ml of purified water [2, 22]: 6.26 | Residual amount [2, 23]: 100.5% | Total impurities [2, 23]: 2.74% | pH of reconstituted solution in 5 ml of purified water [2, 23]: 6.00 | Residual amount [2, 24]: 97.9% | Total impurities [2, 24]: 3.95% | pH of reconstituted solution in 5 ml of purified water [2, 24]: 5.99 | Residual amount [2, 25]: 97.3% | pH of reconstituted solution in 5 ml of purified water [2, 25]: 6.00 | Residual amount [2, 26]: 100.0% | Total impurities [2, 26]: 2.28% | Water content [2, 26]: 0.9% | pH of reconstituted solution in 5 ml of purified water [2, 26]: 6.13 | Residual amount [2, 27]: 99.0% | Total impurities [2, 27]: 2.76% | pH of reconstituted solution in 5 ml of purified water [2, 27]: 6.04 | Residual amount [2, 28]: 98.1% | Total impurities [2, 28]: 4.14% | pH of reconstituted solution in 5 ml of purified water [2, 28]: 5.95 | Total impurities [2, 29]: 3.83% | pH of reconstituted solution in 5 ml of purified water [2, 29]: 5.96 | Residual amount [2, 30]: 100.0% | Total impurities [2, 30]: 2.46% | Water content [2, 30]: 1.3% | pH of reconstituted solution in 5 ml of purified water [2, 30]: 6.03 | Residual amount [2, 31]: 99.5% | Total impurities [2, 31]: 2.79% | Residual amount [2, 32]: 97.8% | Total impurities [2, 32]: 4.15% | pH of reconstituted solution in 5 ml of purified water [2, 32]: 5.92 | Residual amount [2, 33]: 96.7% | Total impurities [2, 33]: 3.92% | pH of reconstituted solution in 5 ml of purified water [2, 33]: 5.88 | Appearance [2, 34]: white mass | Clarity of reconstituted solutions [2, 34]: transparent | Color of reconstituted solutions [2, 34]: colorless | Time for reconstitutional dissolution [2, 34]: 15 s
